Measured values from ChEMBL document CHEMBL5661975, “Discovery and pharmacologic characterization of CP-724,714, a selective ErbB2 tyrosine kinase inhibitor” (Cancer Res, 2007).
In brackets after ≈: the same amount, converted by molar mass. Activity calls are given as the source filed them. The calls are words filed in the database; no cut-off is given here.

How the values were obtained:
[1] = molecular target: Receptor tyrosine-protein kinase erbB-2 (Homo sapiens, UniProt P04626); experiment: Inhibition of human recombinant intracellular domain of erbB2; type: cell-based
Chain of Receptor tyrosine-protein kinase erbB-2 (P04626 whole entry, the tested form may be a part): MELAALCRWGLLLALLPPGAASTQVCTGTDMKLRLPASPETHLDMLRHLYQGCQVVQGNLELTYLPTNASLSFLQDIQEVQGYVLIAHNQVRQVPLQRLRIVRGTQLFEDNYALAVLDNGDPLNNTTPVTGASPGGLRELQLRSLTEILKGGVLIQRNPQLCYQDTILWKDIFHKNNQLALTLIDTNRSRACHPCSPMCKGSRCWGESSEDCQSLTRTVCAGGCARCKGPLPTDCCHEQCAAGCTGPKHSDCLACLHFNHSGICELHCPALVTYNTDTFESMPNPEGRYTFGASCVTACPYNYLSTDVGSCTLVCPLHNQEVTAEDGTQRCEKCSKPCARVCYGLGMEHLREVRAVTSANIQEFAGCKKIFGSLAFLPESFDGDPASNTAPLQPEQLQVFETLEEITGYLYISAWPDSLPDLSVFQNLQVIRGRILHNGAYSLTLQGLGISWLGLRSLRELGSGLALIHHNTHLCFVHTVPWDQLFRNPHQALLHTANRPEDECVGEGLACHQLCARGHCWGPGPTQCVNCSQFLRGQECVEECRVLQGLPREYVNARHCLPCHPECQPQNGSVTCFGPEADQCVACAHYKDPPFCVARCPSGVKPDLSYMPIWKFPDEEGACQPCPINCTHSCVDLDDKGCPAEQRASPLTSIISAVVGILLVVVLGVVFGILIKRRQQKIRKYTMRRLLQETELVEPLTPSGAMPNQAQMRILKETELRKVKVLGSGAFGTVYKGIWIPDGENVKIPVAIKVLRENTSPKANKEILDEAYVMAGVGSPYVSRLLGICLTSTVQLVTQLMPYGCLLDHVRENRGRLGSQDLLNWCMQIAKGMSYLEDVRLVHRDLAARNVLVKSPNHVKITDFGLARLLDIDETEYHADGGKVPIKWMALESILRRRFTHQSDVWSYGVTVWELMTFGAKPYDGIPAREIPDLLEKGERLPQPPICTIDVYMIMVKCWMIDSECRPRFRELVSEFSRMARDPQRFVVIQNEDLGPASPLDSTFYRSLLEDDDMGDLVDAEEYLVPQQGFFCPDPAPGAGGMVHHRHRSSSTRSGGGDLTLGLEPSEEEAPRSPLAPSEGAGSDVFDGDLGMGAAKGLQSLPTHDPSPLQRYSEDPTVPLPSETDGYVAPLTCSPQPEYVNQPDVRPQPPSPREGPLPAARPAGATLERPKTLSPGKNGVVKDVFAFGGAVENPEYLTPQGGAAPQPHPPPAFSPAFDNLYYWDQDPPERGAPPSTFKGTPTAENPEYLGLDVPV

[2] = Antiproliferative activity against human SUM190PT cells assessed as inhibition of cell growth; type: functional, cell-based
[3] = system: SK-BR-3; experiment: Antiproliferative activity against human SK-BR-3 cells assessed as inhibition of cell growth; type: functional, cell-based
[4] = system: UACC-812; experiment: Antiproliferative activity against human UACC-812 cells assessed as inhibition of cell growth; type: functional, cell-based
[5] = system: T47D; experiment: Antiproliferative activity against human T47D cells assessed as inhibition of cell growth; type: functional, cell-based
[6] = system: MDA-MB-361; experiment: Antiproliferative activity against human MDA-MB-361 cells assessed as inhibition of cell growth; type: functional, cell-based
[7] = system: MCF7; experiment: Antiproliferative activity against human MCF7 cells assessed as inhibition of cell growth; type: functional, cell-based
[8] = Antiproliferative activity against human KPL-1 cells assessed as inhibition of cell growth; type: functional, cell-based
[9] = system: MDA-MB-157; experiment: Antiproliferative activity against human MDA-MB-157 cells assessed as inhibition of cell growth; type: functional, cell-based
[10] = system: ZR-75-1; experiment: Antiproliferative activity against human ZR-75-1 cells assessed as inhibition of cell growth; type: functional, cell-based
[11] = system: BT-20; experiment: Antiproliferative activity against human BT-20 cells assessed as inhibition of cell growth; type: functional, cell-based
[12] = system: BT-474; experiment: Induction of cell cycle arrest in Her2-amplified human BT-474 cells overexpressing erbB2 assessed as reduction in S phase at 1 micromol/L incubated for 24 hrs by flow cytometry analysis relative to control; type: functional; design: scale not given: the % may be the effect or the level left; settings: dose 1 µmol/L, at 1 µM
[13] = system: BT-474; experiment: Inhibition of colony formation in human BT-474 cells overexpressing erbB2 assessed as decrease in colony formation at 1 micromol/L by methanolic crystal violet staining relative to control; type: functional; settings: dose 1 µmol/L
[14] = system: SK-BR-3; experiment: Inhibition of colony formation in human SK-BR-3 cells overexpressing erbB2 assessed as decrease in colony formation at 3 micromol/L by methanolic crystal violet staining relative to control; type: functional; settings: dose 3 µmol/L
[15] = system: FRE; experiment: Antitumor activity against human erbB2 transfected FRE cells xenografted bearing female athymic nu-nu CD-1 mouse assessed as tumor erbB2 receptor phosphorylation at 25 mg/kg, po administration and measured at 4 hrs by ELISA method; type: functional, organism-based
[16] = Antitumor activity against human erbB2 transfected FRE cells xenografted bearing female athymic nu-nu CD-1 mouse assessed as reduction in tumor erbB2 receptor phosphorylation, po administration by ELISA method; type: functional, organism-based
[17] = Antitumor activity against human erbB2 transfected FRE cells xenografted bearing female athymic nu-nu CD-1 mouse assessed as apoptotic changes at 100 mg/kg, po administration and measured at 8 hrs by H&E staining method relative to control; type: functional
[18] = system: FRE; experiment: Antitumor activity against human erbB2 transfected FRE cells xenografted bearing female athymic nu-nu CD-1 mouse assessed as inhibition in tumor volume at 6.25 to 100 mg/kg, po QD administrated for 8 to 40 days; type: functional, organism-based; settings: dose 6.25-100 mg/kg, time 8-40 day
[19] = Antitumor activity against human erbB2 transfected FRE cells xenografted bearing female athymic nu-nu CD-1 mouse assessed as inhibition in tumor growth at 50 mg/kg, po QD administrated for 8 to 40 days relative to control; type: functional; settings: time 8-40 day
[20] = Average plasma concentration (0 to 4 hrs) in human erbB2 transfected FRE cells xenografted bearing female athymic nu-nu CD-1 mouse at 50 mg/kg, po QD administrated for 8 to 40 days by liquid chromatography-tandem mass spectrometry analysis; type: ADME, organism-based; settings: in vivo, time 8-40 day
[21] = Toxicity in human erbB2 transfected FRE cells xenografted bearing female athymic nu-nu CD-1 mouse assessed as mortality at 50 mg/kg, po QD administrated for 8 to 40 days; type: organism-based; settings: in vivo, time 8-40 day
[22] = system: BT-474; experiment: Antitumor activity against human BT-474 expressing erbB2 cells xenografted bearing female athymic nu-nu CD-1 mouse assessed as tumor regrowth at 30 mg/kg, po bid administration and measured at 40 day; type: functional, organism-based
[23] = system: BT-474; experiment: Antitumor activity against human BT-474 expressing erbB2 cells xenografted bearing female athymic nu-nu CD-1 mouse assessed as inhibition in tumor growth at 1 mg/kg, po bid administration and measured at 40 day relative to control; type: functional; settings: BT-474, 960 h
[24] = system: BT-474; experiment: Antitumor activity against human BT-474 expressing erbB2 cells xenografted bearing female athymic nu-nu CD-1 mouse assessed as inhibition in tumor growth at 30 mg/kg, po bid administration and measured at 40 day relative to control; type: functional; settings: BT-474, 960 h
[25] = system: BT-474; experiment: Antitumor activity against human BT-474 expressing erbB2 cells xenografted bearing female athymic nu-nu CD-1 mouse assessed as tumor regression at 100 mg/kg, po bid administration and measured at 40 day relative to control; type: functional
[26] = system: BT-474; experiment: Antitumor activity against human BT-474 expressing erbB2 cells xenografted bearing female athymic nu-nu CD-1 mouse assessed as reduction in tumor erbB2 receptor phosphorylation at 1 to 30 mg/kg, po bid administration and measured at 40 day by ELISA method relative to control; type: functional; design: scale not given: the % may be the effect or the level left; settings: dose 1-30 mg/kg
[27] = system: BT-474; experiment: Antitumor activity against human BT-474 expressing erbB2 cells xenografted bearing female athymic nu-nu CD-1 mouse assessed as reduction in tumor erbB2 receptor phosphorylation at 100 mg/kg, po bid administration and measured at 40 day by ELISA method relative to control; type: functional; design: scale not given: the % may be the effect or the level left
[28] = system: MDA-MB-453; experiment: Antitumor activity against human MDA-MB-453 expressing erbB2 cells xenografted bearing female athymic nu-nu CD-1 mouse assessed as inhibition in tumor growth at 50 mg/kg, po bid administration and measured at 29 day relative to control; type: functional; settings: MDA-MB-453, 696 h
[29] = system: MDA-MB-453; experiment: Antitumor activity against human MDA-MB-453 expressing erbB2 cells xenografted bearing female athymic nu-nu CD-1 mouse assessed as reduction in tumor erbB2 phosphorylation at 100 mg/kg, po bid administration and measured at 29 day by ELISA method relative to control; type: functional; design: scale not given: the % may be the effect or the level left
[30] = system: LoVo; experiment: Antitumor activity against human LoVo low expressing erbB2 cells xenografted bearing female athymic nu-nu CD-1 mouse assessed as inhibition in tumor growth at 100 mg/kg, po bid administrated for 14 to 31 days relative to control; type: functional; settings: time 14-31 day
[31] = system: COLO 205; experiment: Antitumor activity against human COLO 205 low expressing erbB2 cells xenografted bearing female athymic nu-nu CD-1 mouse assessed as inhibition in tumor growth at 100 mg/kg, po bid administrated for 14 to 31 days relative to control; type: functional; settings: time 14-31 day
[32] = system: BT-474; experiment: Antitumor activity against human BT-474 high expressing erbB2 cells xenografted bearing female athymic nu-nu CD-1 mouse assessed as reduction in tumor phospho-Akt level at 100 mg/kg, po after 0.5 hrs administration by western blot analysis relative to control; type: functional; design: scale not given: the % may be the effect or the level left

With `COCC(=O)NC/C=C/c1ccc2ncnc(Nc3ccc(Oc4ccc(C)nc4)c(C)c3)c2c1` [CP-724714] the IC50 [1] was 10 nM, the IC50 [2] was 710 nM and the IC50 [3] was 950 nM. The IC50 [4] was 1900 nM, the IC50 [5] was 2400 nM and the IC50 [6] was 3700 nM. The IC50 [7] was 9800 nM, the IC50 [8] was greater than 10000 nM and the IC50 [9] was greater than 10000 nM. It also gave an IC50 [10] greater than 10000 nM, an IC50 [11] greater than 10000 nM and an Activity [12] of 3.2%. The inhibition at 1 µM [13] was greater than 80%, the inhibition at 3 µM [14] was greater than 80% and the Activity [15] was “inactive”. For the same compound, the EC50 [16] was 1 µg/mL (≈ 2.13 µM), the Activity [17] was 75% and the inhibition [18] was “Active”. The inhibition in vivo at 50 mg/kg [19] was roughly 50%, the Cave [20] was 1300 ng/mL and the Activity [21] was “Non-Toxic”. The Activity [22] was “Active”, the inhibition in vivo at 1 mg/kg [23] was 41% and the inhibition in vivo at 30 mg/kg [24] was 81%. For the same compound, the Activity [25] was 61%, the Activity [26] was 10% and the Activity [27] was 81%. The inhibition in vivo at 50 mg/kg [28] was 66%, the Activity [29] was 69% and the inhibition in vivo at 100 mg/kg [30] was 46%. The inhibition in vivo at 100 mg/kg [31] was 46% and the Activity [32] was 70%.
